The source of these data is patent publication US5807691A, “Polypeptides having serotonin receptor activity (5HT5A), nucleic acids coding for these polypeptides and uses thereof” (Institut National De La Sante et Da La Recherche Medicale, priority 1992, dated 1998).

Molecules are shown by their SMILES. Where two headings read alike, the source gives them in different places.

The target in assay [1] is 5HT1D. To be noted: cited from earlier work.
Assay [2] concerns the target 5HT1D. The settings on record: cited from earlier work. The source holds these as a separate data set.
Assay [3] addresses 5HT5a receptor.
Assay [4] has as its system 5HT5a receptor. The source holds these as a separate data set.
Assay [5] deals with 5HT5a receptor. In words: Saturation binding of radiolabelled serotonin ligands to membranes of Cos-7 cells expressing the 5HT5a receptor. Also noted: species or system rat. The settings on record: 10 minutes at 37° C., 50 mM Tris-HCl pH 7.4. As for the experimental part: The specific binding is shown.
(§1) Radioactivity was measured with a γ counter.

Assay [6] deals with 5HT5a receptor. The assay can be described thus: [^125 I]-LSD binding to membranes of NIH-3T3 clones NS1 and NS4 expressing the 5HT5a receptor. Also noted: species or system rat. As for the experimental part:
as §1
For this purpose, the recombinant expression vector described in 3. above was used. […] The transformant clones were selected in the presence of 0.5 mg of G418. The clones isolated were then amplified, and the total RNAs of these clones were prepared and analysed by Northern blotting for the expression of 5HT5a mRNA.
The membranes of the cells of these clones were then prepared and tested under the conditions described above for their capacity to bind some labelled serotonin ligands, and to determine the affinity of the receptors for the said ligands.
Different displacement experiments were then carried out (Table 1).

With `CC(C)NCC(O)COc1cccc2[nH]ccc12` (racemic) [(±)Pindolol], on 5HT1D [1] (Calf caudate), the “pKi 5HT1D (Calf caudate)” value was 5.2. Further, at 5HT1D [2], the “pKi 5HT1D (rat cortex)” value is on record as below 5.
Take `NCCc1c[nH]c2ccc(C(N)=O)cc12` [5-CT]: the “pKi 5HT1D (Calf caudate)” value at 5HT1D [1] (Calf caudate) is recorded as 8.6. The “pKi 5HT1D (rat cortex)” value on 5HT1D [2] is 8.6.
`NCCc1c[nH]c2ccc(O)cc12` [5-HT, 5-hydroxytryptamine]: the “pKi 5HT1D (Calf caudate)” value at 5HT1D [1] (Calf caudate) is on record as 8.4. Moreover, on 5HT1D [2], the “pKi 5HT1D (rat cortex)” value is on record as 8.7.
As to `CCCN(CCC)C1CCc2cccc(O)c2C1` (stereo not drawn) [8-OH-DPAT], the “pKi 5HT1D (Calf caudate)” value on 5HT1D [1] (Calf caudate) was 5.9. The “pKi 5HT1D (rat cortex)” value at 5HT1D [2] was 6.6.
`NC[C@H](O)c1ccc(O)c(O)c1` [(-)Norepinephrine] showed a Ki at 5HT5a receptor [3] of 1580 µM.
Turning to `CN(C)CCc1c[nH]c2ccc(O)cc12` [Bufotenine], on 5HT1D [1] (Calf caudate), the “pKi 5HT1D (Calf caudate)” value is recorded as 8.1.
On 5HT5a receptor [3], `NCCc1ccc(O)c(O)c1` [Dopamine] showed a Ki of 79.4 µM.
For `CN1C[C@H](C(=O)N[C@]2(C)O[C@@]3(O)[C@@H]4CCCN4C(=O)[C@H](Cc4ccccc4)N3C2=O)C=C2c3cccc4[nH]cc(c34)C[C@H]21` [Ergotamine], at 5HT1D [1], the “pKi 5HT1D (Calf caudate)” value is on record as 7.8. In the assay with 5HT5a receptor [4], the “pKi 5HT5 (Cos-7)” value came to 8.4.
As to `O=C(c1ccc(F)cc1)C1CCN(CCn2c(=O)[nH]c3ccccc3c2=O)CC1` [Ketanserin], the “pKi 5HT1D (Calf caudate)” value at 5HT1D [1] (Calf caudate) is given as 5.7. On 5HT5a receptor [3], affinity was put at a Ki of 15.8 µM. Besides, the “pKi 5HT1D (rat cortex)” value at 5HT1D [2] was below 5.
For `COc1ccc2[nH]cc(C3=CCNCC3)c2c1` [RU24969], the “pKi 5HT1D (Calf caudate)” value on 5HT1D [1] (Calf caudate) is 7.3.
As to `CNS(=O)(=O)Cc1ccc2[nH]cc(CCN(C)C)c2c1` [Sumatriptan], the “pKi 5HT1D (Calf caudate)” value on 5HT1D [1] (Calf caudate) was 7.5.
On to `FC(F)(F)c1cccc(N2CCNCC2)c1` [TFMPP], for which, on 5HT1D [1] (Calf caudate), the “pKi 5HT1D (Calf caudate)” value was 6.2. Also, the “pKi 5HT1D (rat cortex)” value at 5HT1D [2] is listed as 6.6.
`COC(=O)[C@@H]1[C@H]2C[C@H]3c4[nH]c5ccccc5c4CCN3C[C@@H]2CC[C@@H]1O` [Yohimbine]: the “pKi 5HT1D (Calf caudate)” value at 5HT1D [1] is recorded as 7.1.
For `CCCN(CCC)C1CCc2cccc(O)c2C1` (stereo not drawn) [[^3 H]-8-OH-DPAT], the “binding of radiolabelled ligand to membranes of transfected Cos-7 cells” value (“binding of radiolabelled ligand” below) with 5HT5a receptor [5] is listed as “do not bind”.
`O=C(CCCN1CCC2(CC1)C(=O)NCN2c1ccccc1)c1ccc(F)cc1` [[^3 H]-spiperone]: the “binding of radiolabelled ligand” value with 5HT5a receptor [5] is “do not bind”.
As to `CCN(CC)C(=O)[C@@H]1C=C2c3cccc4[nH]c([125I])c(c34)C[C@H]2N(C)C1` [[^125 I]-LSD], the “binding sites for [^125 I]-LSD on membranes of clones NS1 and NS4” value in the assay with 5HT5a receptor [6] is “high-affinity binding sites”. In the assay on 5HT5a receptor [5], the “binding of radiolabelled ligand” value is on record as “possesses a saturable binding site”. The Kd in the assay with 5HT5a receptor [5] (Cos-7 membranes, non-specific binding with 10 μM 5HT, FIG. 2) turned out to be 0.00034 µM.
For the compound `CC(C)(C)NCC(O)COc1cccc2[nH]c(C#N)c([125I])c12` (stereo not drawn) [[^125 I]-cyanopindolol], the “binding of radiolabelled ligand” value with 5HT5a receptor [5] was “do not bind”.

One may read the Ki as the equilibrium dissociation constant of an inhibitor or competing ligand from its target. By Kd is commonly meant the free concentration of one partner at which half of the binding sites on the other are occupied at equilibrium, for simple one-to-one binding. Low readings indicate a tighter complex, high ones a looser complex.
